What all share (assay type): cell-based, human
Assay [1] relates to IL-8 secretion from HPBMCs. The assay can be described thus: IL-8 secretion from HPBMCs, ELISA. As to conditions: 1 μM SD pre-treatment, all the conditions (control, CRP, FCS, CRP plus FCS), 6 hours. The method, then:
8×10^5 HPBMCs were plated in 96-well. After 1 hour medium was removed and cells were incubated with or without 10 μg/ml of purified human CRP in serum-free RPMI 1640. In parallel experiments cells were treated with 10% FCS together with the CRP treatment. For the p38 antagonism, p38 inhibitor was added to a final concentration of 1 μM in the parallel treatment. After 6 hours conditioned medium were collected and IL-6 and IL-8 levels were determined by ELISA. […] 5×10^6 HPBMCs were plated in 6-well. After 1 hour medium was removed and cells were treated with vehicle or 1 μM p38 inhibitor in RPMI 1640 medium. After 1 hour cells were stimulated with 10% FCS only or 10 μg/ml CRP plus 10% FCS. After 2 hours RNA was extracted from the cells and IL-8 expression level was determined by real-time PCR as described in the Experimental section.
Cryopreserved human peripheral blood monocytes (HPBMCs, from Biowitker, Walkersvill, Md.) were thawed and washed twice in RPMI 1640. Cells were plated in tissue culture plates and incubated in 5% CO2 at 37 C. […]
Conditioned media from the treated cells were collected (6 to 20 hrs), and the level of secreted interleukin 6 (IL-6), interleukin 1 beta (IL-1 β), tumor necrosis factor alpha (TNFα), and interleukin 8 (IL-8) was determined by ELISA according to the manufacturer's instruction (Biosource International, Camarillo, Calif.). […]

The next assay has as its system IL-1β mRNA in HPBMCs. The assay can be described thus: IL-1β gene expression in HPBMCs, real-time PCR. As to conditions: 1 μM SD, 2 hrs. On the procedure: 5×10^6 HPBMCs were plated in 6-well. After 1 hour medium was removed and cells were treated with vehicle or 1μM p38 inhibitor in RPMI 1640 medium. After 1 hour cells were stimulated with 10% FCS only or 10 μg/ml CRP plus 10% FCS. After 6 hours conditioned medium was collected and IL-1b and TNFa levels were determined by ELISA. […] 5×10^6 HPBMCs were plated in 6-well. After I hour medium was removed and cells were treated with vehicle or […] p38 inhibitor in RPMI 1640 medium. After 1 hour cells were stimulated with 10% FCS only or 10 μg/ml CRP plus 10% FCS. After 2 hours RNA was extracted from the cells and TNFa (c) and IL-1b (d) expression levels were determined by real-time PCR as described in the Experimental section. […]
(§1) RNA was extracted from the cells using Qiagen RNA extraction kit according to the manufacturer's instruction. The expression of pro-inflammatory genes IL-1β, IL-6, IL-8, TNFα, COX-2, ET-1, TF were assessed by real-time PCR. […]
(§2) Real-time RT-PCR was performed in a two-step manner. cDNA synthesis and real-time detection were carried out in a PTC-100™ Thermal Cycler (MJ Research Inc, Waltham, Mass.) and an ABI Prism™ 7700 Sequence Detection System (Applied Biosystems, Foster City, Calif.), respectively. […] Relative quantitation of gene expression was performed using the relative standard curve method. […]
(Quantitative PCR measures a nucleic acid by following its amplification.)

Another assay deals with COX-2 mRNA in HPBMCs. The experiment in a line: COX-2 gene expression in HPBMCs, real-time PCR. As to conditions: 6 hours. On the procedure:
5×10^6 HPBMCs were plated in 6-well. After 1 hour medium was removed and cells were treated with vehicle or 1 μM p38 inhibitor in RPMI 1640 medium. After 1 hour cells were stimulated with 10% FCS only or 10 μg/ml CRP plus 10% FCS. After 6 hours RNA was extracted from the cells and COX-2 gene expression level was determined by real-time PCR as described in the Experimental section.
Cryopreserved human peripheral blood monocytes (HPBMCs, from Biowitker, Walkersvill, Md.) were thawed and washed twice in RPMI 1640. Cells were plated in tissue culture plates and incubated in 5% CO2 at 37 C. After 1 hr media were removed and cells were treated with various treatments. After 2 to 20 hours conditioned media and/or cell lysates were collected for the analyses of secreted cytokines, protein or mRNA expression. […]
as §1, §2

Another assay deals with TF protein in HPBMCs. The experiment in a line: Tissue Factor protein expression in HPBMCs, Western. As to conditions: 1 μM SD, 16 hours. The method, then:
The figures illustrate the effects of CRP on TF protein and mRNA expression in HPBMCs and their modulation by p38 inhibitor. 1.5×10^6 HPBMCs were plated in 48-well. After 1 hour medium was removed and cells were incubated with or without 10 μg/ml of purified human CRP in serum-free RPMI 1640. In parallel experiments, cells were treated with 10% FCS together with the CRP treatment. For the p38 antagonism, p38 inhibitor was added to a final concentration of 1 μM in the parallel treatment. After 16 hours cells were lysed and TF protein level was determined by Western blot. TF signal was normalized by GAPDH signal. As shown in FIG. 7(c), after 6 hours TF mRNA level were determined by real-time PCR as described in the Experimental section.
Cryopreserved human peripheral blood monocytes (HPBMCs, from Biowitker, Walkersvill, Md.) were thawed and washed twice in RPMI 1640. Cells were plated in tissue culture plates and incubated in 5% CO2 at 37 C. After 1 hr media were removed and cells were treated with various treatments. After 2 to 20 hours conditioned media and/or cell lysates were collected for the analyses of secreted cytokines, protein or mRNA expression. 10 μg/ml of purified human CRP (Calbiochem, San Diego, Calif.) was used in most of the treatments. In some experiments fetal calf serum (FCS from ATCC) was added to a final concentration of 10% together with CRP. In the examples provided herein, including those assessing the effects of p38 antagonism, cells were pre-treated with SD, a p38 small molecule inhibitor (Compound 162 in Table A) for 1 hour prior to CRP treatment as described above. In a parallel series of experiments, the effect of vehicle (DMSO) was tested. […]
HPBMCs were treated as described above (p38 MAP kinase activation). […] 10 μg total proteins were resolved on LDS-PAGE (In Vitrogen, Carlsbad, Calif.), and tissue factor protein expression was determined by Western using antibody against human tissue factor (American Diagnostica, Stamford, Conn.). […]

Entries after “also recorded” stand apart in the source; their conditions may differ.

Turning to `C[C@@H]1CN(Cc2ccc(F)cc2)[C@@H](C)CN1C(=O)c1cc2c(C(=O)C(=O)N(C)C)c[nH]c2cc1Cl` [Compound 162], the “inhibition of IL-8 secretion” value in assay [1] was “almost completely inhibited”. Further, the “inhibition of FCS induced expression of IL-1β gene” value with IL-1β mRNA in HPBMCs is “attenuated”. Besides, the “inhibition of CRP-invoked COX-2 mRNA expression” value with COX-2 mRNA in HPBMCs (1 μM SD pre-treatment, listed as SD) is listed as “almost completely blocked; also recorded: almost completely inhibited”. Besides, the “inhibition of FCS induced COX-2 mRNA” value with COX-2 mRNA in HPBMCs (1 μM SD) is on record as “completely inhibited”. Besides, in the assay on TF protein in HPBMCs, the “reduction of TF protein expression invoked by CRP plus FCS” value is listed as “to control level” and the “reduction of TF protein expression invoked by FCS” value is given as “to control level”. The “reduction of TF protein expression invoked by CRP” value in the assay with TF protein in HPBMCs (listed as SD) is on record as “to control level; also recorded: blocked”.

The record behind these values is US20060019971A1, “Treatment of cardiovascular disease with inhibitors of p38 kinase” (priority 2003, published 2006).
